According to paper PMC9457798, “In Vivo Anticancer Evaluation of 6b, a Non-Covalent Imidazo[1,2-a]quinoxaline-Based Epidermal Growth Factor Receptor Inhibitor against Human Xenograft Tumor in Nude Mice” (Molecules, 2022):

What was measured:
[1] = In vitro microsomal stability, human liver microsomes; type: in vitro ADME; conditions: for microsomal CLint at 1 µM / half-life at 1 µM / remaining at 0.5 h, 1 µM: human, liver microsomes, 0.5 mg/mL microsomes; for microsomal CLint at 1 µM / half-life at 1 µM: pH 7.4, NADPH; for microsomal CLint at 1 µM: read-out: CLint HLM; for half-life at 1 µM: read-out: t½ HLM; for remaining at 0.5 h, 1 µM: NADPH 1 mM, pH 7.4, 37 °C, read-out: % Remaining after 30 min HLM
Description: (§1) Compounds were incubated at a final concentration of 1 µM with human (HLM) and mouse (MLM) at 0.5 mg/mL and NADPH (1 mM) in 100 mM phosphate buffer (pH 7.4) at 37 °C. The reactions were terminated at 0 and 30 min by the addition of cold acetonitrile containing propranolol (50 ng/mL) as an internal standard.

A549 xenograft tumor = assay: A549-cell-induced lung cancer xenograft model in nude mice; conditions: for % tumor growth inhibition: intraperitoneally once a week, 21 days; for Average tumor weight: compared with the other groups; for Cytotoxic effect on the tumor (H&E staining): excised tumors
Description: The animal experiments were performed as per the guidelines of the Committee for the Purpose of Control and Supervision of Experiments on Animals (CPCSEA) with the approval of the Institutional Animal Ethics Committee (# IAEC/19/14). Four–five-week-old male athymic nude mice were procured from Vivo Bio Tech Ltd., Hyderabad, India. Animals were kept in an individually ventilated caging (IVC) system in a pathogen-free environment with standard conditions of temperature: 22 ± 1 °C, humidity: 50 ± 10%, and a 12 h light/dark cycle maintained in the National Toxicology Center (NTC) in the National Institute of Pharmaceutical Education and Research (NIPER), Mohali. Throughout the study, animals were fed with a standard rodent chow diet and water ad libitum.
Xenograft, the nude mice model, was developed by injecting A549 (1 × 10 ^6 cells, suspended in Matrigel™) subcutaneously into the right flank of each mouse. Tumor-bearing mice were randomly divided into four groups with seven animals per group after attaining an anticipated tumor volume of >80 mm^3. […] Treatment was given intraperitoneally once a week for a period of 21 days. Tumor volume and body weight were measured weekly during the study. Vernier caliper was used to measure the size of A549-cell-induced tumors weekly, starting from two weeks after inoculation.
Tumors were surgically removed from animals, sliced, and fixed in 10% v/v formal saline. For the histological study, the sliced tumors were processed and embedded in paraffin; sections of 5 µm were mounted on poly-L-lysine-coated glass slides. Sections were then stained with hematoxylin & eosin (H&E) to observe the structural alterations as described.

[2] = system: Twist, Zeb1, and Hif-1α gene expression; assay: qPCR analysis of Twist, Zeb1 and Hif-1α in tumor tissue from treated mice; type: in vivo, nude mice; conditions: vs untreated mice
[3] = In vitro microsomal stability, mouse liver microsomes
Description: as §1

EGFR = system: EGFR; set-up: method as in PMID 25342981, PMID 27121209; conditions: earlier report of the authors; read-out: IC50 (EGFR inhibition); cited from earlier work
[4] = system: H1975 lung cancer cells with mutant EGFR (L858R/T790M); conditions: gefitinib-resistant H1975, EGFR L858R/T790M; earlier report of the authors; read-out: IC50 (anti-proliferative, H1975 cells); cited from earlier work
[5] = system: PI3K/AKT pathway (AKT, P-AKT, PI3K, PTEN); assay: Western blot (immunoblotting) of tumor tissue from A549 xenograft mice; type: in vivo, nude mice; conditions: for PTEN protein level in tumors: gefitinib 30 mg/kg, 6b both doses, vs control untreated mice
Description: Tissue that had been kept at −80 °C was removed and placed on ice for 5 min. A total of 20 mg of tissue was diced and placed in a 1.5 mL microcentrifuge tube kept on ice. The tissue was lysed to extract the proteins using RIPA lysis buffer with a cocktail (IX) of phosphatase and protease inhibitors, followed by sonication for 30 min. After that, the mixture was centrifuged, and the supernatant was collected for protein estimation using the Bradford assay. Thereafter, immunoblotting was performed using SDS-PAGE for the separation and resolving of individual proteins by their molecular weights. The proteins were further transferred to nitrocellulose membranes, and blocking was performed in 3% powdered milk solution. Further, the membrane was washed using TBST buffer and was incubated in primary antibody (CST) for 3 h. After incubation, the membrane was washed in TBST and re-incubated for 1h in secondary antibody. The immune complex was detected using ChemiDoc^TM (BioRad) after washing the membrane with TBST [46].

in vitro = conditions: mouse, microsomes, pH 7.4
Description: as §1

[6] = mouse, liver microsomes, pH 7.4

Row | Structure (SMILES) | microsomal CLint at 1 µM [1] | half-life at 1 µM [1] | remaining at 0.5 h, 1 µM [1] | Kaplan–Meier survival (A549 xenograft tumor; 30 mg/kg, i.p.) | Average tumor weight (A549 xenograft tumor; 30 mg/kg, i.p.) | Cytotoxic effect on the tumor (H&E staining) (A549 xenograft tumor) | Expression of the Hif-1α gene in tumors [2] | PTEN protein level in tumors [5] | also measured
1 | COc1cc(C=Nc2c(C#N)nc3c(-c4cc(OC)c(OC)c(OC)c4)nc4ccccc4n23)cc(OC)c1OC [6b, 1-((3,4,5-Trimethoxybenzylidene)amino)-4-(3,4,5-trimethoxyphenyl)imidazo[1,2-a]quinoxaline-2-carbonitrile] | 80 µL/min/mg | 17.2 min | 29.9% | improved the survival of the mice | lower | marked cytotoxic damage | decreased | increased | Stability in human liver microsomes (in words) [1]: good stability; % tumor growth inhibition (A549 xenograft tumor; 10 mg/kg (LD)): 16%; Effect on tumor volume / size (A549 xenograft tumor; 30 mg/kg, i.p., vs tumor control): significantly decreased the size of the tumors; % tumor growth inhibition (A549 xenograft tumor; 30 mg/kg): 33%; Expression of EMT-regulating genes Twist and Zeb1 in tumors [2]: decreased; Stability in mouse liver microsomes (in words) [3]: good stability; half-life at 1 µM [3, 6]: 36.1 min; microsomal CLint at 1 µM [3, 6]: 38 µL/min/mg; remaining at 0.5 h, 1 µM [3, 6]: 56.2%; IC50 (EGFR): 211 nM; IC50 [4]: 3.65 µM; AKT, P-AKT and PI3K protein level in tumor masses ([5]; LD (10 mg/kg) and HD (30 mg/kg), vs untreated mice): decreased
2 | NC(=O)N1c2ccccc2C=Cc2ccccc21 [Carbamazepine, reference compound] | 3 µL/min/mg | 478 min | 95.7% | – | – | – | – | – | half-life at 1 µM (in vitro): 130 min; microsomal CLint at 1 µM (in vitro): 11 µL/min/mg; remaining at 0.5 h, 1 µM (in vitro): 85.2%
3 | COc1cc2ncnc(Nc3ccc(F)c(Cl)c3)c2cc1OCCCN1CCOCC1 [gefitinib, reference compound] | – | – | – | improved the survival of the mice | lower | marked cytotoxic damage | decreased | increased | Effect on tumor volume / size (A549 xenograft tumor; mouse, in vivo): suppression of tumor volume to some extent
